Measurements: PubChem BioAssay (NCI)
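Interpolation was linear, between the two tested concentrations surrounding the appropriate level; five concentrations were tested over 48 hours in 96-well plates. TGI is the concentration that stops growth completely.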

Legend:
Assay in all cases: NCI anticancer screen, dose series, 48 h
[1] = test system: A549 NSCLC
[2] = test system: ACHN renal
[3] = test system: CCRF-CEM leukemia
[4] = test system: COLO 205 colon
[5] = test system: DMS 114 small cell lung
[6] = test system: DMS 273 small cell lung
[7] = test system: EKVX NSCLC
[8] = test system: HCC-2998 colon
[9] = test system: HCT-116 colon
[10] = test system: HCT-15 colon
[11] = test system: HL-60(TB) leukemia
[12] = test system: HOP-18 NSCLC
[13] = test system: HOP-62 NSCLC
[14] = test system: HOP-92 NSCLC
[15] = test system: HT29 colon
[16] = test system: IGROV1 ovarian
[17] = test system: K-562 leukemia
[18] = test system: KM12 colon
[19] = test system: KM20L2 colon
[20] = test system: LOX IMVI melanoma
[21] = test system: LXFL 529 NSCLC
[22] = test system: M14 melanoma
[23] = test system: M19-MEL melanoma
[24] = test system: MOLT-4 leukemia
[25] = test system: NCI-H23 lung
[26] = test system: NCI-H460 lung
[27] = test system: OVCAR-3 ovarian
[28] = test system: OVCAR-4 ovarian
[29] = test system: OVCAR-5 ovarian
[30] = test system: OVCAR-8 ovarian
[31] = test system: RPMI-8226 leukemia
[32] = test system: RXF 393 renal
[33] = test system: SF-268 CNS
[34] = test system: SF-539 CNS
[35] = test system: SK-MEL-2 melanoma
[36] = test system: SK-MEL-28 melanoma
[37] = test system: SK-MEL-5 melanoma
[38] = test system: SN12C renal
[39] = test system: SNB-19 CNS
[40] = test system: SNB-75 CNS
[41] = test system: SNB-78 CNS
[42] = test system: SR leukemia
[43] = test system: SW-620 colon
[44] = test system: TK-10 renal
[45] = test system: U251 CNS
[46] = test system: UACC-257 melanoma
[47] = test system: UACC-62 melanoma
[48] = test system: UO-31 renal
[49] = test system: 786-0 renal
[50] = test system: A498 renal
[51] = test system: CAKI-1 renal
[52] = test system: DLD-1 colon
[53] = test system: MALME-3M melanoma
[54] = test system: NCI-H226 lung
[55] = test system: NCI-H522 lung
[56] = test system: SF-295 CNS
[57] = test system: SK-OV-3 ovarian

Nc1cc(-c2ccccc2)nn1-c1nsc2ccccc12
TGI [1]: > 100 µM
TGI [2]: > 100 µM
TGI [3]: 62.3 µM
TGI [4]: > 100 µM
TGI [5]: > 100 µM
TGI [6]: > 100 µM
TGI [7]: > 100 µM
TGI [8]: > 100 µM
TGI [9]: > 100 µM
TGI [10]: > 100 µM
TGI [11]: > 100 µM
TGI [12]: > 100 µM
TGI [13]: > 100 µM
TGI [14]: > 100 µM
TGI [15]: > 100 µM
TGI [16]: > 100 µM
TGI [17]: > 100 µM
TGI [18]: > 100 µM
TGI [19]: > 100 µM
TGI [20]: > 100 µM
TGI [21]: > 100 µM
TGI [22]: > 100 µM
TGI [23]: > 100 µM
TGI [24]: > 100 µM
TGI [25]: > 100 µM
TGI [26]: > 100 µM
TGI [27]: > 100 µM
TGI [28]: > 100 µM
TGI [29]: > 100 µM
TGI [30]: > 100 µM
TGI [31]: > 100 µM
TGI [32]: 61.7 µM
TGI [33]: > 100 µM
TGI [34]: > 100 µM
TGI [35]: > 100 µM
TGI [36]: > 100 µM
TGI [37]: > 100 µM
TGI [38]: > 100 µM
TGI [39]: > 100 µM
TGI [40]: 56.9 µM
TGI [41]: > 100 µM
TGI [42]: > 100 µM
TGI [43]: > 100 µM
TGI [44]: > 100 µM
TGI [45]: > 100 µM
TGI [46]: > 100 µM
TGI [47]: > 100 µM
TGI [48]: > 100 µM

COc1ccc(C2=C3c4cc(OC)c(OC)cc4CCN3C(=S)SS2)cc1OC
TGI [49]: > 100 µM
TGI [50]: > 100 µM
TGI [1]: > 100 µM
TGI [2]: > 100 µM
TGI [51]: > 100 µM
TGI [3]: > 100 µM
TGI [4]: > 100 µM
TGI [52]: > 100 µM
TGI [5]: > 100 µM
TGI [6]: > 100 µM
TGI [7]: > 100 µM
TGI [8]: > 100 µM
TGI [9]: > 100 µM
TGI [10]: > 100 µM
TGI [11]: > 100 µM
TGI [12]: > 100 µM
TGI [13]: > 100 µM
TGI [14]: > 100 µM
TGI [15]: > 100 µM
TGI [16]: > 100 µM
TGI [17]: > 100 µM
TGI [18]: > 100 µM
TGI [19]: > 100 µM
TGI [20]: > 100 µM
TGI [21]: > 100 µM
TGI [22]: > 100 µM
TGI [23]: > 100 µM
TGI [53]: 97.6 µM
TGI [24]: > 100 µM
TGI [54]: > 100 µM
TGI [25]: > 100 µM
TGI [26]: > 100 µM
TGI [55]: > 100 µM
TGI [27]: > 100 µM
TGI [28]: > 100 µM
TGI [29]: > 100 µM
TGI [30]: > 100 µM
TGI [31]: > 100 µM
TGI [32]: > 100 µM
TGI [33]: > 100 µM
TGI [56]: > 100 µM
TGI [34]: > 100 µM
TGI [35]: > 100 µM
TGI [36]: > 100 µM
TGI [37]: > 100 µM
TGI [57]: > 100 µM
TGI [38]: > 100 µM
TGI [39]: > 100 µM
TGI [40]: > 100 µM
TGI [41]: > 100 µM
TGI [43]: > 100 µM
TGI [44]: > 100 µM
TGI [45]: > 100 µM
TGI [46]: > 100 µM
TGI [47]: > 100 µM
TGI [48]: > 100 µM

COc1ccc(C2[C@H]3C(=O)N(c4ccc(Cc5ccc(N6C(=O)[C@@H]7ON(c8ccccc8)C(c8ccc(OC)cc8)[C@@H]7C6=O)cc5)cc4)C(=O)[C@H]3ON2c2ccccc2)cc1 (stereo not given in full)
TGI [49]: > 100 µM
TGI [50]: > 100 µM
TGI [1]: > 100 µM
TGI [2]: > 100 µM
TGI [51]: > 100 µM
TGI [3]: > 100 µM
TGI [4]: > 100 µM
TGI [52]: > 100 µM
TGI [6]: > 100 µM
TGI [7]: > 100 µM
TGI [8]: > 100 µM
TGI [9]: > 100 µM
TGI [10]: > 100 µM
TGI [11]: > 100 µM
TGI [12]: > 100 µM
TGI [13]: > 100 µM
TGI [14]: > 100 µM
TGI [15]: > 100 µM
TGI [16]: > 100 µM
TGI [17]: > 100 µM
TGI [18]: > 100 µM
TGI [19]: > 100 µM
TGI [20]: > 100 µM
TGI [21]: > 100 µM
TGI [22]: 84.7 µM
TGI [23]: > 100 µM
TGI [53]: > 100 µM
TGI [24]: > 100 µM
TGI [54]: > 100 µM
TGI [25]: > 100 µM
TGI [26]: > 100 µM
TGI [55]: > 100 µM
TGI [27]: > 100 µM
TGI [28]: > 100 µM
TGI [29]: > 100 µM
TGI [30]: > 100 µM
TGI [31]: > 100 µM
TGI [32]: > 100 µM
TGI [33]: > 100 µM
TGI [56]: > 100 µM
TGI [34]: > 100 µM
TGI [35]: > 100 µM
TGI [36]: > 100 µM
TGI [37]: > 100 µM
TGI [57]: > 100 µM
TGI [38]: > 100 µM
TGI [39]: > 100 µM
TGI [40]: > 100 µM
TGI [41]: > 100 µM
TGI [42]: > 100 µM
TGI [43]: > 100 µM
TGI [44]: > 100 µM
TGI [45]: > 100 µM
TGI [46]: > 100 µM
TGI [47]: > 100 µM
TGI [48]: > 100 µM
